Laboratory results: ChEMBL document CHEMBL5705888, “Substrate specificity and inhibitors of LRRK2, a protein kinase mutated in Parkinson's disease” (Biochem J, 2009)

Legend:
[1] = target: Mitogen-activated protein kinase 3 (Homo sapiens) (UniProt P27361); test: Inhibition of ERK1 (unknown origin) at 10 uM incubated for 30 mins in presence of [gamma-33P]ATP by multidrop micro reagent based assay relative to control; values are per cent of control
[2] = target: T1, Dual specificity tyrosine-phosphorylation-regulated kinase 3 (Homo sapiens) (UniProt O43781); test: Inhibition of DYRK3 (unknown origin) at 10 uM incubated for 30 mins in presence of [gamma-33P]ATP by multidrop micro reagent based assay relative to control
T1 sequence (whole entry): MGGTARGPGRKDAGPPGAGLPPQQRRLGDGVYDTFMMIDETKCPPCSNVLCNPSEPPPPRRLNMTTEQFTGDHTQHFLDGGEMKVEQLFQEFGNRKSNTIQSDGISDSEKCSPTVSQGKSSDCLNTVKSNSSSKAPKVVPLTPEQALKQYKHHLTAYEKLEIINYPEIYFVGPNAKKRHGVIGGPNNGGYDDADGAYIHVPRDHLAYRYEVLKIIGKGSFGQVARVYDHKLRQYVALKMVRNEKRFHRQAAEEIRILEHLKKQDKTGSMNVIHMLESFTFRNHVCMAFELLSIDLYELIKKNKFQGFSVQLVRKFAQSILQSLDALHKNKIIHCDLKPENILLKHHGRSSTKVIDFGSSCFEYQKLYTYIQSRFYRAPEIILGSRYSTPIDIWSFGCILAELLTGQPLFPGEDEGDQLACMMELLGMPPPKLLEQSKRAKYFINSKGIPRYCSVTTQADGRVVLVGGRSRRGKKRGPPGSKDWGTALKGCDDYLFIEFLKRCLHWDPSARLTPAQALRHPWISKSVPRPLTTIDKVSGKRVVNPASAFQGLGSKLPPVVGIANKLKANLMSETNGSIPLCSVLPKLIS

Mitogen-activated protein kinase 3 (Homo sapiens), sequence (P27361 whole entry): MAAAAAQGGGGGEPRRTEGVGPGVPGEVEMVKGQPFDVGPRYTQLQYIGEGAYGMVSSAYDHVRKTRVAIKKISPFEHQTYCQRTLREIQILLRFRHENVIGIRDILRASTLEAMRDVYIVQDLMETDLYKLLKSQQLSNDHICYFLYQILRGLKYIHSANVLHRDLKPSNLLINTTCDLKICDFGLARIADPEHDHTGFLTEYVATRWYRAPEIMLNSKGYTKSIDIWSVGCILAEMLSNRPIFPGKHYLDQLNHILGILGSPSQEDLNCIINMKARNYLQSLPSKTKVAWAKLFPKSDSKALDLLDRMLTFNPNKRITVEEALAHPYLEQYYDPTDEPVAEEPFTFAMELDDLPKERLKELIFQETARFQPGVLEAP

**Q.** With `C[C@@H](N)[C@H]1CC[C@H](C(=O)Nc2ccncc2)CC1` as the molecule, how does the residual activity [1] read?
**A.** Its residual activity is 92%.

**Q.** And the inhibition [2]?
**A.** Its inhibition is 100%.
